The text below walks through data of patent publication US20240299269A1, “HYDROXY ACIDS FOR SCALP AND HAIR IN PERSONAL CARE COMPOSITIONS” (The Procter & Gamble Company, priority 2023, published 2024).

Molecules are shown by their SMILES.

For data set [1] the following is noted: calcium binding constant; cited from earlier work.
For data set [2] the following is noted: octanol/water; cited from earlier work.
A short description of data set [3]: In vitro calcium chelation screening of weak acids (octanol/water, ICP-OES). The settings on record: for % Calcium in Water Phase: 3% hydroxy acid in water, pH approximately 3, 1000 ppm CaCO3 in octanol, vortexed 2 minutes, 2 hours. It counts as physicochemical. The method, then:
A high throughput in-vitro screening method is developed to help identify lead acids that could function as calcium chelators. The intent of the method is to mimic the lipid matrix of the scalp and to quantify the amount of calcium that could be extracted from that matrix. […] Equal parts of the lipid and water phases are added to a conical vial and vortexed for 2 minutes. The vials are left to sit for 2 hours and then the lower water phase is extracted from the concial vial and submitted for Calcium analysis via ICP-OES. […] [formula]

For the compound `O=C(O)CC(O)(CC(=O)O)C(=O)O` [Citric Acid], in data set [1], the logK_1 is recorded as 1.100 and the logK_3 is reported as 4.680.

With `O=C(O)[C@H](O)[C@@H](O)[C@H](O)[C@H](O)CO` [Gluconic Acid], the LogP in data set [2] is recorded as −1.870. In addition, the logK_1 in data set [1] is on record as 1.880.

For `O=C(O)CO` [Glycolic Acid], the LogP in data set [2] is listed as −1.050. For the same compound, the logK_1 in data set [1] is on record as 1.590.

As for `CC(O)C(=O)O` (stereo not drawn) [Lactic Acid], in data set [3], the “% Calcium in Water Phase” value is on record as 78%. Further, in data set [1], the logK_1 is 1.450.

For the compound `O=C(O)c1ccccc1O` [Salicylic Acid], the “% Calcium in Water Phase” value in data set [3] was 29%. Further, the calcium chelation ability result in data set [3] (among hydroxy acids screened) is “lower calcium chelation ability”. In addition, in data set [1], the logK_1 is 1.100.

For `O=C(O)C(O)C(O)C(=O)O` (stereo not drawn) [Tartaric Acid], the LogP in data set [2] is −0.760.
